# Results reported in article PMC11284787, “Ligand-Directed Labeling of the Adenosine A1 Receptor in Living Cells” (Journal of Medicinal Chemistry, 2024).
# How the values were obtained:
# SNAP-hA1AR = test system: T1, SNAP-hA1AR; assay: Live-cell confocal microscopy of SNAP-hA1AR HEK293T cells; type: cell-based, human; settings: for fluorescent labeling of SNAP-hA1AR at the plasma membrane: 125 nM 11 or 50 nM 12 (then MetTet-SulfoCy5) for 2 h; for labeling of SNAP-hA1AR after pretreatment with 10 μM DPCPX: 10 μM DPCPX pretreatment 30 min; for fluorescence intensity after 10 μM DPCPX added to prelabeled cells: prelabeled 2 h, then 10 μM DPCPX 1 h, P > 0.05
# T1 construct: expressed in transfected cells; host or cells: HEK293T, transient transfection (FuGENE HD)
# Excerpt: Having investigated the molecular pharmacology of 11 and 12 in a series of in vitro assays, we sought to apply the LD probes for studying A1AR localization and dynamics in living cells. To this end, LD probes 11 and 12 were initially used in confocal microscopy studies to test their ability to label and allow visualization of the SNAP-hA1AR in living HEK293T cells (Figure 6). […] With both probes, the fluorescence labeling colocalized with SNAP-hA1AR labeled with AF488 (Figure 6A,C top frames).
# Cells were labeled with membrane impermeable SNAP-AF488 for 30 min prior to treatment with 11 and 12 for 2 h, respectively, with the latter followed by the addition of 1 μM methyltetrazine (Met-Tet) SulfoCy5 for 5 min prior to the acquisition of the single equatorial images. […] For all the conditions, left-hand frames represent the SulfoCy5 channel (magenta), middle frames are the SNAP-hA1AR AF488 (green) channel, and right-hand frames represent merged images of both channels, with white indicating the overlap of magenta and green. (B, E) Fluorescence intensity plots (16-bit) were generated for both SulfoCy5 and AF488 channels by hand drawing the region of interest (ROI) in images obtained as indicated in (A) and (C) using ImageJ (FIJI). Data points represent membrane fluorescence signals measured from ROI drawn in each cell, and error bars represent mean ± standard deviation (SD). Images are representative of images obtained from three independent experiments from which 72 to 83 cells were analyzed. Scale bars are = 13 μm for (A) and 10 μm for (C). (D) Schematic representation of the biorthogonal IEDDA reaction between the TCO group (covalently attached to the hA1AR by ligand-directed chemistry) and SulfoCy5-conjugated methyltetrazine (MetTet-SulfoCy5). Following the click IEDDA reaction, the formation of the 4,5-dihydropyridazine cycloadduct increases the fluorescence intensity of the fluorophore conjugated to the tetrazine moiety. […]
# using a Zeiss LSM880 confocal microscope as described in the confocal imaging […]
# HEK293T cells were seeded in 8-well plates (Nunc Lab-Tek, Thermo Fischer Scientific), pre-coated with Poly-D-Lysine, at 20,000 cells/well in DMEM/10% FCS.
# 24 h post seeding, cells were transiently transfected with human SNAP-A1. Transient transfections were carried out following manufacturer’s protocol: used FuGENE HD at 3:1 ratio of reagent to cDNA with a total of 300 ng cDNA per well. Transfection solutions were made up in Gibco Opti-MEM (Thermo Fischer Scientific), incubated at RT for 5 min and added as 11 µL per well. Cells were incubated for additional 24 h at 37 OC, 5% CO2. On the day of the experiment medium was removed and the cells were labelled for 30 min at 37 °C with 0.2 µM SNAP-surface AF488 in SFM. After washing twice with SFM the cells were treated with or without 10 µM competitive A 1AR- […]
# Following the incubation step, the ligand-directed probe under investigation (SulfoCy5 or PEG-TCO) (11 or 12) was added to the appropriate wells at the required concentrations and incubated for 2 h. After that time, cells were washed 4x with warm HBSS, followed by the addition of 300 µL warm HBSS and imaged. For click-chemistry reactions, after washing 4x with warm HBSS, cells pre-labelled with the trans-cyclooctene-conjugated 12 (PEG-TCO) at 50 nM were subsequently treated with 1 µM Methyl-TetrazineSulfoCy5 (Lumiprobe, Germany) for 5 min at RT in the dark. Cells were washed 2x with warm HBSS and imaged. When […]
# 1 h before imaging. […]
# Live cell imaging was performed using either a Zeiss LSM 710 or LSM880 laser scanning confocal microscope fitted with a Zeiss C-Apochromat 40 × 1.2 NA water immersion objective. A 633 nm HeNe laser was used for the excitation of SulfoCy5 fluorophore and a 488/561/633 dichroic, and the emission was detected between 634 […]
# and 755 nm. A 488 nm […] laser was used to excite SNAP-AF488 and the emission was detected between 493 and 586 nm. The pinhole diameter (1 Airy Unit; 1.1 μm […]
# NL-hA2BAR = biological target: T2, NL-hA2BAR (Homo sapiens, UniProt P29275); assay: NanoBRET competition ligand-binding assay (CA200645 tracer), NL-hA2BAR; settings: CA200645 (25 nM) tracer, HEK293T cells, mean ± SEM; read-out: affinity values pKi, NL-hA2BAR (converted)
# T2 construct: expressed in transfected cells
# T2 sequence (P29275 1-332): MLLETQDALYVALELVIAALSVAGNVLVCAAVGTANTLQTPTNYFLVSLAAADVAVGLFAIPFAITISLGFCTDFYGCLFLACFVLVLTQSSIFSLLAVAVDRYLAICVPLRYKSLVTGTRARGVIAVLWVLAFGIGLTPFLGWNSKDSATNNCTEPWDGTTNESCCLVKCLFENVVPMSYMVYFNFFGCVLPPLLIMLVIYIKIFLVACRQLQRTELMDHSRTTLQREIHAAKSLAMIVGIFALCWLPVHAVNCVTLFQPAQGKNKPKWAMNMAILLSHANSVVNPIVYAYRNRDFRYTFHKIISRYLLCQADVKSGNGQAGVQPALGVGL
structure (smiles),measurement,setting,value
"CCCCn1c(=O)c2[nH]c(C34CCC(C(=O)NCCNC(=O)CCNC(=O)c5ccc(OC(=O)CCCCC[N+]6=C(/C=C/C=C/C=C7/N(C)c8ccc(S(=O)(=O)O)cc8C7(C)C)C(C)(C)c7cc(S(=O)(=O)[O-])ccc76)c(F)c5)(CC3)CC4)nc2n(CCCC)c1=O [Compound 11, 1-(6-(4-((3-((2-(4-(1,3-Dibutyl-2,6-dioxo-2,3,6,7-tetrahydro-1H-purin-8-yl)bicyclo[2.2.2]octane-1-carboxamido)ethyl)amino)-3-oxopropyl)carbamoyl)-2-fluorophenoxy)-6-oxohexyl)-3,3-dimethyl-2-((1E,3E)-5-((E)-1,3,3-trimethyl-5-sulfoindolin-2-ylidene)penta-1,3-dien-1-yl)-3H-indol-1-ium-5-sulfonate]",fluorescent labeling of SNAP-hA1AR at the plasma membrane,SNAP-hA1AR,Clear fluorescent labeling
same,labeling of SNAP-hA1AR after pretreatment with 10 μM DPCPX,SNAP-hA1AR,prevented the labeling
same,fluorescence intensity after 10 μM DPCPX added to prelabeled cells,SNAP-hA1AR,did not change their fluorescence intensities
"CCCCn1c(=O)c2[nH]c(C34CCC(C(=O)NCCNC(=O)CCNC(=O)c5ccc(OC(=O)CCC(=O)NCCOCCOCCNC(=O)O[C@H]6CC/C=C/CCC6)c(F)c5)(CC3)CC4)nc2n(CCCC)c1=O [Compound 12, 4-((3-((2-(4-(1,3-Dibutyl-2,6-dioxo-2,3,6,7-tetrahydro-1H-purin-8-yl)bicyclo[2.2.2]octane-1-carboxamido)ethyl)amino)-3-oxopropyl)carbamoyl)-2-fluorophenyl (R,E)-1-(Cyclooct-4-en-1-yloxy)-1,12-dioxo-5,8-dioxa-2,11-diazapentadecan-15-oate]",Ki,NL-hA2BAR,813 nM
same,fluorescent labeling of SNAP-hA1AR at the plasma membrane,SNAP-hA1AR,Clear fluorescent labeling
same,labeling of SNAP-hA1AR after pretreatment with 10 μM DPCPX,SNAP-hA1AR,prevented the labeling
same,fluorescence intensity after 10 μM DPCPX added to prelabeled cells,SNAP-hA1AR,did not change their fluorescence intensities
